How the values were obtained:
[1] = tested on: Pseudomonas aeruginosa biofilm, ATCC 15692 strain; experiment: Biofilm viability and volume by live/dead staining and CLSM, ATCC 15692 strain; conditions: ATCC 15692 biofilm, 6 hours; MH 14% w/v, nitrite 10 mM, SNO-MP/B-MP 10 mg/mL
Experimental: (§1) A culture of PA, grown overnight in TSB, was diluted to 10^8 cells/mL. The bacterial suspension was then adjusted to 10^5 cells/mL in TSB and inoculated into an 8 well LabTek II Chambered #15 Coverglass System (Thermo Fisher Scientific). The chamber system was incubated at 37° C. for 48 hours. The media was replenished after 24 hours to maintain bacterial viability.
(§2) Established biofilms were divided into four treatment groups: 1) negative control with untreated bacterial suspension, 2) MH, 3) nitrite (10 mM), and 4) MH administered with nitrite (10 mM). Bacteria were treated with the appropriate treatment solution, as above, for 6 hours under complete darkness at 37° C. followed by washing with PBS. Staining was performed using the BacLight LIVE/DEAD Bacterial Viability kit (Invitrogen, Carlsbad, CA). The LIVE/DEAD kit solution constituting Syto9 and propidium iodide was then applied to each well of the chamber slide system for 1 hour at room temperature in darkness. After incubation, each sample was rinsed with PBS and incubated in 10% buffered formalin for 20 minutes at room temperature in darkness. […]
(§3) Images of biofilms were taken using a TCS SP5 CLSM (Leica Microsystems, Wetzlar, Germany) configured to a 488-nm argon laser with a 63× objective. […] Volocity software (PerkinElmer, Waltham, MA) was used to quantify biofilm viability and biomass in each Z-stack.

[2] = tested on: Pseudomonas aeruginosa biofilm, PA1 strain; experiment: Biofilm viability and volume by live/dead staining and CLSM, PA1 strain; type: cell-based; conditions: 6 hours, MH 14% w/v, nitrite 10 mM
Experimental: as §1, §2, §3

[3] = NO release rate measured with a Sievers 280i nitric oxide analyzer; type: physicochemical
Experimental: NO release rates were measured using a Sievers 280i nitric oxide analyzer (GE Instruments, Boulder, CO). Samples were dispersed in 5 mL tryptic soy broth (TSB) or MH 14% w/v in TSB at room temperature. Release kinetics were analyzed using Sievers NOAnalysis software (GE Instruments) with 12 measurements per minute recorded for 280 total minutes.

[4] = tested on: Pseudomonas aeruginosa planktonic isolates (PA1 strain); experiment: Colony forming unit (CFU) assay, titration of nitrite dose with MH; type: cell-based; conditions: PA1, 6 hours at 37° C.; MH or nitrite (10 mM) alone
Experimental: An overnight-grown culture of the PA1 strain in TSB was diluted to 10^8 cells/mL based on McFarland equivalence turbidity standard No. 0.5 (Thermo Fisher Scientific) and then adjusted to 10^5 cells/mL in TSB. Suspensions were treated with MH, nitrite, and serial dilutions of nitrite from 10 mM to 1 μM combined with MH. Untreated bacteria were used as negative controls. Bacterial suspensions were mixed using a tube rotator to ensure uniform distribution of bacteria and then incubated at 37° C. for 6 hours. Suspensions were then diluted in PBS and plated on TSA. Bacterial viability was determined by counting the number of colonies established on an agar plate after overnight incubation at 37° C.

[5] = over 280 minutes, nitrite 5 mM, MH 14% w/v, SNO-MP and blank-MP 5 mg/mL, TSB, room temperature

With O=NO [nitrite, sodium nitrite] the “reduction in live cells (cell viability) relative to control” value [1] was “did not significantly reduce”, the “reduction in biofilm volume relative to control” value ([2]; SNO-MP 10 mg/mL) was 43.9% and the “reduction in live cells (cell viability) relative to control” value ([2]; SNO-MP/B-MP 10 mg/mL) was “did not significantly reduce”. The “NO release curve, key points in words (FIG. 1)” value ([3]; 280 minutes, neutral pH, nitrite 5 mM, MH 14% w/v, SNO-MP 5 mg/mL) was “no NO production”, the NO detected ([3]; nitrite 5 mM in tryptic soy broth, room temperature) was “less than 0.1 ppm” and the “NO release, mean” value [3, 5] was 0.004±0.001 ppm. The “NO release, range” value [3, 5] was 0.003-0.009 ppm and the “reduction in CFU versus controls” value [4] was “did not have a significant effect”.
